Key:
ABUTH [1] = experiment: Herbicidal post-emergence action - Part II; assay type: in vivo, Abutilon theophrasti
Excerpt: (§1) Seeds of mono- and dicotyledonous weed plants and crop plants were sown, in plastic or organic planting pots, in sandy loam, covered with soil and grown in a greenhouse under controlled growth conditions. 2 to 3 weeks after sowing, the test plants were sprayed in the single-leaf stage. The compounds according to the invention, formulated in form of wettable powders (WP) or as emulsifiable concentrates (EC), were sprayed onto the green plant parts as aqueous suspension or emulsion, with the addition of 0.5% of an additive, at an application rate of 600 1 of water/ha (converted). The test plants were placed in the greenhouse for ca. 3 weeks under optimum growth conditions, and then the effect of the preparations was assessed visually in comparison with untreated controls (herbicidal effect in percent (%): 100% effect = plants have died off, 0% effect = as control plants). Tables E1 to E10 below show the effects of selected compounds of the general formula (I) according to table 1 on various harmful plants and an application rate corresponding to 320 g/ha or below obtained by the experimental procedure mentioned above. Table E1a: post-emergence activity at 5g/ha against ABUTH in %

PHBPU = experiment: Herbicidal post-emergence action - Part II; assay type: in vivo, Pharbitis purpurea
Excerpt: as §1

VIOTR = experiment: Herbicidal post-emergence action - Part II; assay type: in vivo, Viola tricolor
Excerpt: as §1

VERPE [2] = experiment: Herbicidal post-emergence action - Part II; assay type: in vivo, Veronica persica
Excerpt: as §1

TRZAS = experiment: Post-emergence effects on crop plants; assay type: in vivo, Triticum aestivum; conditions: crop plant
Excerpt: as §1, with “F1” for “E1”, “F5” for “E10”, “crop” for “harmful”, “[…]:” for “E1a:”, “ZEAMX” for “ABUTH”

ZEAMX = experiment: Post-emergence effects on crop plants; assay type: in vivo, Zea mays; conditions: crop plant
Excerpt: as §1, with “F1” for “E1”, “F5” for “E10”, “crop” for “harmful”, “[…]:” for “E1a:”, “ZEAMX” for “ABUTH”

AMARE [3] = experiment: Herbicidal post-emergence action - Part II; assay type: in vivo, Amaranthus retroflexus
Excerpt: as §1

ECHCG [4] = experiment: Herbicidal post-emergence action - Part II; assay type: in vivo, Echinochloa crus-galli; conditions: 20 g/ha; Table E3a
Excerpt: as §1

SETVI = experiment: Herbicidal post-emergence action - Part II; assay type: in vivo, Setaria viridis
Excerpt: as §1

POLCO = experiment: Herbicidal post-emergence action - Part II; assay type: in vivo, Polygonum convolvulus; conditions: 20 g/ha; Table E6
Excerpt: as §1

MATIN [5] = experiment: Herbicidal post-emergence action - Part II; assay type: in vivo, Matricaria inodora
Excerpt: as §1

GLXMA = experiment: Post-emergence effects on crop plants; assay type: in vivo, Glycine max; conditions: crop plant
Excerpt: as §1, with “F1” for “E1”, “F5” for “E10”, “crop” for “harmful”, “[…]:” for “E1a:”, “ZEAMX” for “ABUTH”

ABUTH [6] = experiment: Herbicidal post-emergence action - Part I; assay type: in vivo, Abutilon theophrasti; conditions: 320 g/ha, one-leaf stage, rated visually after about 3 weeks vs untreated controls
Experimental: (§2) Seeds of mono- and dicotyledonous weed plants were placed in plastic pots in sandy loam soil (doubly sown with in each case one species of mono- or dicotyledonous weed plants per pot), covered with soil and cultivated in a greenhouse under controlled growth conditions. 2 to 3 weeks after sowing, the test plants were treated at the one-leaf stage. The compounds of the invention, formulated in the form of wettable powders (WP) or as emulsion concentrates (EC), were applied onto the green parts of the plants as aqueous suspension or emulsion with addition of 0.5% additive at a water application rate of 600 liters per hectare (converted). After the test plants had been kept in the greenhouse under optimum growth conditions for about 3 weeks, the activity of the preparations was rated visually in comparison to untreated controls. For example, 100% activity = the plants have died, 0% activity = like control plants. Tables B1 to B12, below, show the effects of selected compounds of the general formula (I) according to table 1 on various harmful plants and an application rate corresponding to 1280 g/ha or below obtained by the experimental procedure mentioned above. Table B1a: post-emergence activity at 1280g/ha against ABUTH in %

KCHSC = experiment: Herbicidal post-emergence action - Part I; assay type: in vivo, Kochia scoparia; conditions: 1280 g/ha, one-leaf stage, rated visually after about 3 weeks vs untreated controls
Experimental: as §2

AMARE [7] = experiment: Herbicidal post-emergence action - Part I; assay type: in vivo, Amaranthus retroflexus; conditions: one-leaf stage, rated visually after about 3 weeks vs untreated controls
Experimental: as §2

AMARE [8] = experiment: Herbicidal pre-emergence action - Part I; assay type: in vivo, Amaranthus retroflexus; conditions: 1280 g/ha, visual grading after ca. 3 weeks vs untreated controls
Excerpt: (§3) Seeds of mono- and dicotyledonous weed plants were sown in plastic pots (double sowings with one species of mono- and one species of dicotyledonous weed plants per pot), in sandy loam, and covered with soil. The compounds according to the invention, formulated in the form of wettable powders (WP) or as emulsifiable concentrates (EC), were applied to the surface of the covering soil as aqueous suspension or emulsion, with the addition of 0.5% of an additive, at an application rate of 600 1 of water per hectare (converted). Following treatment, the pots were placed in a greenhouse and kept under optimum growth conditions for the test plants. The visual grading of the damage to the test plants was carried out after ca. 3 weeks in comparison to untreated controls (herbicidaleffectinpercent(%):100%effect=plantshavediedoff,0%effect=ascontrolplants). [formula]
(§4) Tables A1 to A12, below, show the effects of selected compounds of the general formula (I) according to table 1 on various harmful plants and an application rate corresponding to 1280 g/ha or below obtained by the experimental procedure mentioned above. Table A1: pre-emergence activity at 1280g/ha against ABUTH in %

VERPE [9] = experiment: Herbicidal post-emergence action - Part I; assay type: in vivo, Veronica persica; conditions: 1280 g/ha, one-leaf stage, rated visually after about 3 weeks vs untreated controls
Experimental: as §2

STEME [10] = experiment: Herbicidal post-emergence action - Part I; assay type: in vivo, Stellaria media; conditions: one-leaf stage, rated visually after about 3 weeks vs untreated controls
Experimental: as §2

ECHCG [11] = experiment: Herbicidal pre-emergence action - Part I; assay type: in vivo, Echinochloa crus-galli; conditions: 1280 g/ha, visual grading after ca. 3 weeks vs untreated controls
Excerpt: as §3, §4

STEME [12] = experiment: Herbicidal pre-emergence action - Part I; assay type: in vivo, Stellaria media; conditions: 1280 g/ha, visual grading after ca. 3 weeks vs untreated controls
Excerpt: as §3, §4

MATIN [13] = experiment: Herbicidal post-emergence action - Part I; assay type: in vivo, Matricaria inodora; conditions: one-leaf stage, rated visually after about 3 weeks vs untreated controls
Experimental: as §2

Row | SMILES | post-emergence activity against ABUTH (ABUTH [1]; 5 g/ha, Table E1a) | post-emergence activity against ABUTH (ABUTH [1]; 20 g/ha, Table E1b) | post-emergence activity against PHBPU (PHBPU; 5 g/ha, Table E5a) | post-emergence activity against PHBPU (PHBPU; 20 g/ha, Table E5b) | post-emergence activity against VIOTR (VIOTR; 5 g/ha, Table E9a) | post-emergence activity against VIOTR (VIOTR; 20 g/ha, Table E9b) | post-emergence activity against VERPE (VERPE [2]; 5 g/ha, Table E8a) | post-emergence activity against VERPE (VERPE [2]; 20 g/ha, Table E8b) | post-emergence activity against TRZAS (TRZAS; 5 g/ha, Table F2a) | post-emergence activity against ZEAMX (ZEAMX; 5 g/ha, Table F1a) | post-emergence activity against AMARE (AMARE [3]; 5 g/ha, Table E2a) | post-emergence activity against AMARE (AMARE [3]; 20 g/ha, Table E2b) | post-emergence activity against SETVI (SETVI; 20 g/ha, Table E7b) | post-emergence activity against POLCO (POLCO) | post-emergence activity against TRZAS (TRZAS; 20 g/ha, Table F2b) | post-emergence activity against MATIN (MATIN [5]; 20 g/ha, Table E4b) | also measured
1 | Cn1c(C(F)(F)F)cc(=O)n(-c2cc(C3=NOC4(CCCN(Cc5c(F)cccc5F)C4=O)C3)c(Cl)cc2F)c1=O (racemic) [Compound I-6] | 100% | 100% | 100% | 100% | 100% | 100% | 80% | 80% | 20% | 10% | 100% | 100% | 100% |  |  |  | post-emergence activity against ZEAMX (ZEAMX; 20 g/ha, Table F1b): 10%; post-emergence activity against ECHCG (ECHCG [4]): 80%
2 | Cn1c(C(F)(F)F)cc(=O)n(-c2cc(C3=NOC4(CCCN(Cc5ccccc5F)C4=O)C3)c(Cl)cc2F)c1=O (racemic) [Compound I-7] | 100% | 100% | 100% | 100% | 100% | 100% | 100% | 100% | 10% | 20% | 100% | 100% | 100% | 100% | 20% | 80% | post-emergence activity against MATIN (MATIN [5]; 5 g/ha, Table E4a): 80%
3 | Cn1c(C(F)(F)F)cc(=O)n(-c2cc(C3=NOC4(CCN(Cc5ccccc5F)C4=O)C3)c(Cl)cc2F)c1=O (racemic) [Compound I-28] | 80% | 100% | 100% | 100% | 100% | 100% | 100% | 100% | 20% | 20% | 100% | 100% | 100% |  |  | 100% | post-emergence activity against ZEAMX (ZEAMX; 20 g/ha, Table F1b): 20%; post-emergence activity against ECHCG (ECHCG [4]): 100%; post-emergence activity against SETVI (SETVI; 5 g/ha, Table E7a): 80%
4 | Cn1c(C(F)(F)F)cc(=O)n(-c2cc(C3=NOC4(CCN(Cc5c(F)cccc5F)C4=O)C3)c(Cl)cc2F)c1=O (racemic) [Compound I-29] | 100% | 100% |  | 100% | 100% | 100% | 100% | 100% | 20% | 20% | 100% | 100% | 80% | 100% | 20% | 100% | post-emergence activity against GLXMA (GLXMA; 5 g/ha, Table F4a): 10%; post-emergence activity against GLXMA (GLXMA; 20 g/ha, Table F4b): 20%; post-emergence activity against SETVI (SETVI; 5 g/ha, Table E7a): 80%
5 | COc1ncccc1C1=NOC2(CCN(Cc3cccc(F)c3F)C2=O)C1 (racemic) [Compound I-42] |  |  |  |  |  |  |  |  |  |  |  |  |  |  |  |  | post-emergence activity at 320g/ha against ABUTH in % (ABUTH [6]): 90%; post-emergence activity at 1280g/ha against KCHSC in % (KCHSC): 90%; post-emergence activity at 320g/ha against AMARE in % (AMARE [7]; 320 g/ha): 90%; post-emergence activity at 1280g/ha against AMARE in % (AMARE [7]; 1280 g/ha): 90%; pre-emergence activity at 1280g/ha against AMARE in % (AMARE [8]): 90%; post-emergence activity at 1280g/ha against VERPE in % (VERPE [9]): 90%; post-emergence activity at 320g/ha against STEME in % (STEME [10]; 320 g/ha): 100%; post-emergence activity at 1280g/ha against STEME in % (STEME [10]; 1280 g/ha): 100%; pre-emergence activity at 1280g/ha against ECHCG in % (ECHCG [11]): 90%; pre-emergence activity at 1280g/ha against STEME in % (STEME [12]): 90%; post-emergence activity at 320g/ha against MATIN in % (MATIN [13]; 320 g/ha): 100%; post-emergence activity at 1280g/ha against MATIN in % (MATIN [13]; 1280 g/ha): 100%
6 | CN1CCCC2(CC(c3cc(-n4c(=O)cc(C(F)(F)F)n(C)c4=O)c(F)cc3Cl)=NO2)C1=O (racemic) [Compound I-56] | 100% | 100% | 90% | 100% | 100% | 100% | 80% | 100% | 20% |  | 100% | 100% | 90% | 100% | 20% | 100% | 
7 | Cn1c(C(F)(F)F)cc(=O)n(-c2cc(C3=NOC4(CCNC4=O)C3)c(Cl)cc2F)c1=O (racemic) [Compound I-71] | 80% | 100% |  | 80% | 80% | 80% |  | 80% | 0% | 20% |  | 100% |  | 80% |  | 80% | 

Reference: patent EP4509511A1, “SUBSTITUTED SPIRO-ISOXAZOLINYL LACTAMS, SALTS THEREOF AND THEIR USE AS HERBICIDALLY ACTIVE SUBSTANCES” (Bayer Aktiengesellschaft, priority 2023, dated 2025)
